Data published in patent US20160200698A1, “VORTIOXETINE SALT AND CRYSTAL THEREOF, THEIR PREPARATION METHOD, PHARMACEUTICAL COMPOSITIONS AND USAGE” (HANGZHOU PUSHAI PHARMACEUTICAL TECHNOLOGY CO., LTD, priority 2013, published 2016).
Where a name gives a salt, the structure may show the parent alone. Each block holds one compound with its values, some of them ahead of it.

Key:
Type in all cases: physicochemical
[1] = Hygroscopicity comparison by DVS isothermal sorption curve; conditions: 20%-80% RH range
Protocol: Dynamic vapor sorption (DVS) data were collected using TA Instruments Q5000 TGA. The instrument control software was Thermal Advantage, and the analytical software was Universal Analysis. Usually, 1-10 mg of the sample was placed in a platinum pan and the weight change of the sample during experiments was recorded. The relative humidity was usually programmed to change from 20% to 80% and then back to 20%, and an isothermal sorption curve could be generated. Depending on specific situations, different sorption and desorption procedures might be used.
Hygroscopicity comparison: DVS isothermal sorption curves were used, and weight changes within the 20%-80% RH range were measured.

[2] = Stability competition test (competitive slurry, XRPD analysis); conditions: for Stability Competition Test: crystalline form after competitive slurry (XRPD): ethanol or water, equal quantity of both forms slurried 7 days; for Stability competition test: crystalline form after slurry (summary statement): slurried in water or ethanol, temperature not stated
Protocol: Stability competition test: An equal quantity (250 mg) of the crystalline vortioxetine hemihydrobromide form of the present invention prepared in example 4 and the β Form of vortioxetine hydrobromide prepared in preparation example 2 were respectively added to 3 mL of ethanol or water to produce suspensions. No solvate was formed in ethanol or water. The suspensions were slurried for 7 days at room temperature or at 60° C., and then XRPD characterization analyses were performed.

[3] = Dissolution of tablets made by the method of example 105 (paddle method, water); conditions: 900 mL water, 37° C., paddle 50 r/min
Protocol: The crystalline form of vortioxetine hemihydrobromide of the present invention, the β Form of vortioxetine hydrobromide prepared in preparation example 2 and the β Form of vortioxetine hydrobromide containing 20% of the crystalline form of vortioxetine hemihydrobromide of the present invention were tabletted by the method in example 105 and then subjected to phase stability comparison. Dissolution was determined by reference to the dissolution conditions of Benorilate Tablets described in 2010 Chinese Pharmacopoeia. The paddle method was used with the paddle rotation speed at 50 r/min 900 mL of water was the dissolution medium. The temperature was 37° C. Take 3 mL of the dissolution medium for sampling at 2, 10, 20, 40 and 60 min respectively. Each time after sampling, 3 mL of water was added back to dissolution medium to supplement the volume. The concentration of the dissolution medium at each time point was measured by HPLC, and the dissolution profile was plotted.

[4] = Dissolution comparison of sustained-release tablets made by the method of example 141; conditions: water, 37° C., paddle 50 r/min
Protocol: The crystalline form of vortioxetine hemihydrobromide of the present invention and the β Form of vortioxetine hydrobromide prepared in preparation example 2 were tabletted by the method of example 141 and then subjected to dissolution comparison. Water was used as the dissolution medium. Parameter setting of the dissolution tester: The temperature was 37° C. The rotate speed of the stirring paddle was 50 r/min Take 3 ml of the dissolution medium out at 0.5, 1, 2, 6 and 12 hours respectively. Each time after sampling, 3 mL of water was added back to the dissolution medium to supplement the volume. The concentration of the dissolution medium at each time point was determined by HPLC.

[5] = Inventors' studies of the known crystalline forms of vortioxetine hydrobromide of WO2007/144005A1; conditions: for Stability under high-temperature conditions: hydrobromide
From the text: In studies, the inventors of the present invention found out that the multiple crystalline forms of vortioxetine hydrobromide disclosed in WO2007/144005A1 have the following disadvantages: […]

[6] = Storage of the crystalline form in desiccators at controlled humidity; conditions: desiccators at 10% RH-90% RH, room temperature, 4 months
From the text: It is more temperature and humidity robust and is less likely to have content uniformity and stability issues during pharmaceutical production and storage, thus reduces the risk of inefficacy and safety issue caused thereby and improves dosing accuracy.

[7] = sampling time 2 min, hemihydrobromide
[8] = sampling time 10 min, hemihydrobromide
[9] = sampling time 20 min, hemihydrobromide
[10] = sampling time 40 min, hemihydrobromide
[11] = sampling time 0.5 hours, hemihydrobromide
[12] = sampling time 1 hour, hemihydrobromide
[13] = sampling time 2 hours, hemihydrobromide
[14] = sampling time 6 hours, hemihydrobromide
[15] = sampling time 12 hours, hemihydrobromide
[16] = listed as the known β Form of vortioxetine hydrobromide, hydrobromide
[17] = sampling time 2 min, hydrobromide
[18] = sampling time 10 min, hydrobromide
[19] = sampling time 20 min, hydrobromide
[20] = sampling time 40 min, hydrobromide
[21] = sampling time 0.5 hours, hydrobromide
[22] = sampling time 1 hour, hydrobromide
[23] = sampling time 2 hours, hydrobromide
[24] = sampling time 6 hours, hydrobromide
[25] = sampling time 12 hours, hydrobromide

Hygroscopicity Comparison (weight change) ([1]; listed as Example 4, hemihydrobromide): 0.28% | Hygroscopicity Comparison (weight change) ([1]; listed as the vortioxetine hemihydrobromide crystalline form of the present invention, hemihydrobromide): 0.28% | Stability Competition Test: crystalline form after competitive slurry (XRPD) ([2]; 60° C., listed as the vortioxetine hemihydrobromide crystalline form of the present invention, hemihydrobromide): present invention kept unchanged” | Stability Competition Test: crystalline form after competitive slurry (XRPD) ([2]; room temperature, listed as the vortioxetine hemihydrobromide crystalline form of the present invention, hemihydrobromide): present invention kept unchanged” | Stability competition test: crystalline form after slurry (summary statement) ([2]; hemihydrobromide): keeping its crystalline form unchanged | Concentration [3, 7]: 2270 ng/mL | Cumulative dissolution [3, 7]: 8.2% | Concentration [3, 8]: 4320 ng/mL | Cumulative dissolution [3, 8]: 15.5% | Concentration [3, 9]: 7720 ng/mL | Cumulative dissolution [3, 9]: 27.7% | Concentration [3, 10]: 11330 ng/mL | Cumulative dissolution [3, 10]: 52.4% | Cumulative dissolution ([3]; sampling time 60 min): 100.0% | Concentration ([3]; sampling time 60 min, hemihydrobromide): 27860 ng/mL | Concentration [4, 11]: 2250 ng/mL | Cumulative dissolution [4, 11]: 8.1% | Concentration [4, 12]: 3980 ng/mL | Cumulative dissolution [4, 12]: 14.3% | Concentration [4, 13]: 7650 ng/mL | Cumulative dissolution [4, 13]: 27.4% | Concentration [4, 14]: 12640 ng/mL | Cumulative dissolution [4, 14]: 58.5% | Concentration [4, 15]: 26330 ng/mL | Cumulative dissolution [4, 15]: 94.5%
Compound: Cc1ccc(Sc2ccccc2N2CCNCC2)c(C)c1 [vortioxetine hemihydrobromide]

Stability under high-temperature conditions [5]: lost water
Compound: Cc1ccc(Sc2ccccc2N2CCNCC2)c(C)c1 [hydrate of vortioxetine hydrobromide, vortioxetine hydrobromide]

Hygroscopicity Comparison (weight change) [1, 16]: 0.60% | Concentration [3, 17]: 13120 ng/mL | Cumulative dissolution [3, 17]: 40.1% | Concentration [3, 18]: 28050 ng/mL | Cumulative dissolution [3, 18]: 85.8% | Concentration [3, 19]: 30020 ng/mL | Cumulative dissolution [3, 19]: 91.8% | Concentration [3, 20]: 31660 ng/mL | Cumulative dissolution [3, 20]: 96.8% | Concentration ([3]; sampling time 60 min, hydrobromide): 33420 ng/mL | Concentration [4, 21]: 16370 ng/mL | Cumulative dissolution [4, 21]: 50.0% | Concentration [4, 22]: 29710 ng/mL | Cumulative dissolution [4, 22]: 90.9% | Concentration [4, 23]: 30810 ng/mL | Cumulative dissolution [4, 23]: 94.2% | Concentration [4, 24]: 31560 ng/mL | Cumulative dissolution [4, 24]: 96.5% | Concentration [4, 25]: 33420 ng/mL | Cumulative dissolution [4, 25]: 100.0%
Compound: Cc1ccc(Sc2ccccc2N2CCNCC2)c(C)c1 [the β Form of vortioxetine hydrobromide, 1-[2-(2,4-dimethylphenylsulfanyl)phenyl]piperazine hydrobromide]
Stability Competition Test: crystalline form after competitive slurry (XRPD) ([2]; 60° C., listed as the known β Form of vortioxetine hydrobromide, hydrobromide): completely transformed into the vortioxetine hemihydrobromide crystalline form of the present invention | Stability Competition Test: crystalline form after competitive slurry (XRPD) ([2]; room temperature, listed as the known β Form of vortioxetine hydrobromide, hydrobromide): completely transformed into the vortioxetine hemihydrobromide crystalline form of the present invention | Stability competition test: crystalline form after slurry (summary statement) ([2]; hydrobromide): failed to maintain its original crystalline form and transformed to the vortioxetine hemihydrobromide crystalline form of the present invention | Stability competition test: crystalline form after slurry (summary statement) [2, 16]: completely transformed to the crystalline vortioxetine hemihydrobromide of the present invention | Stability competition test: crystalline form after slurry (summary statement) ([2]; listed as β Form of vortioxetine hydrobromide, hydrobromide): failed to maintain its original crystalline form

Crystalline form after storage [6]: remained unchanged
Compound: Cc1ccc(Sc2ccccc2N2CCNCC2)c(C)c1 [vortioxetine hydrobromide isopropanol solvate]

Compound: Cc1ccc(Sc2ccccc2N2CCNCC2)c(C)c1 [α Form of vortioxetine hydrobromide, vortioxetine hydrobromide]
Crystalline form stability at room temperature ([5]; room temperature): transformed to the β Form of vortioxetine hydrobromide

Stability under high-humidity conditions ([5]; high-humidity conditions): transformed to hydrate | Stability under high-temperature conditions [5]: lost ethyl acetate
Compound: Cc1ccc(Sc2ccccc2N2CCNCC2)c(C)c1 [ethyl acetate solvate of vortioxetine hydrobromide]

Stability (general finding) [5]: very unstable | Hygroscopicity ([5]; low-humidity conditions): 2.0%
Compound: Cc1ccc(Sc2ccccc2N2CCNCC2)c(C)c1 [γ Form of vortioxetine hydrobromide, vortioxetine hydrobromide]
